Experimental data from article PMC7673538 (PLoS Biology, 2020).
Read-outs that look alike come from different tables or passages of the source.

Assays:
EV-A71 = experiment: microbe, parasite or virus in culture; assay type: cell-based, enterovirus A71; details: Enterovirus A
CV-B3 [1] = experiment: microbe, parasite or virus in culture; assay type: cell-based, coxsackievirus B3; details: for EC50: Enterovirus B
PV-1 = experiment: microbe, parasite or virus in culture; assay type: cell-based, poliovirus 1; details: Enterovirus C, HeLa R19, read-out: EC50 PV-1
CV-A24 = experiment: microbe, parasite or virus in culture; assay type: cell-based, coxsackievirus A24; details: Enterovirus C, CVA24, HeLa R19, read-out: EC50 CV-A24
EV-D68 = experiment: microbe, parasite or virus in culture; assay type: cell-based, enterovirus D68; details: Enterovirus D
HRV-A2 = experiment: microbe, parasite or virus in culture; assay type: cell-based, human rhinovirus; details: Human rhinovirus sp., HRVA2, HeLa R19, read-out: EC50 HRV-A2
HRV-B14 = experiment: microbe, parasite or virus in culture; assay type: cell-based, human rhinovirus; details: Human rhinovirus sp.
CV-B3 [2] = experiment: microbe, parasite or virus in culture; assay type: cell-based, coxsackievirus B3; details: Enterovirus B
CV-B3 [3] = experiment: microbe, parasite or virus in culture; assay type: cell-based, coxsackievirus B3; details: Enterovirus B, CVB3, BGM
in vitro [4] = details: human
in vitro [5] = details: human; remark: listed apart in the source
in vitro [6] = details: monkey
[7] = EVA71, HeLa R19, read-out: EC50 EV-A71
[8] = CVB3, HeLa R19, read-out: CV-B3 EC50 Average
[9] = CVB3, HeLa R19, read-out: CV-B3 Exp 1 EC50
[10] = CVB3, HeLa R19, read-out: CV-B3 Exp2 EC50
[11] = CVB3, HeLa R19, read-out: EC50 HelaR19 Average
[12] = CVB3, HeLa R19, read-out: Exp 1 EC50 HelaR19
[13] = CVB3, HeLa R19, read-out: Exp 2 EC50 HelaR19
[14] = EVD68, HeLa R19, read-out: EC50 EV-D68
[15] = EVD68, HeLa R19, read-out: EC50 Exp1
[16] = EVD68, HeLa R19, read-out: EC50 Exp2
[17] = HRVB14, HeLa R19, read-out: EC50 HRV-B14
[18] = CVB3, HAP1, read-out: EC50 Hap1 Average
[19] = CVB3, HAP1, read-out: Exp 1 EC50 Hap1
[20] = CVB3, HAP1, read-out: Exp 2 EC50 Hap1
[21] = HRVB14, HeLa R19, read-out: EC50 Exp1
[22] = HRVB14, HeLa R19, read-out: EC50 Exp2

Compound: COc1ccc(N(Cc2ccc(F)cc2)C(=O)c2ccc[nH]2)cc1 [Compound 5c, N-(4-fluorobenzyl)-N-(4-methoxyphenyl)-1H-pyrrole-2-carboxamide]
- EC50 (EV-A71; [7]): > 30 µM
- EC50 (CV-B3 [1]; CVB3, HeLa): 4.82 ± 0.14 µM
- EC50 (CV-B3 [1]; [8]): 3.01 µM
- EC50 (CV-B3 [1]; [9]): 3.21 µM
- EC50 (CV-B3 [1]; [10]): 2.81 µM
- EC50 (CV-B3 [1]; [11]): 4.81 µM
- EC50 (CV-B3 [1]; [12]): 4.95 µM
- EC50 (CV-B3 [1]; [13]): 4.68 µM
- EC50 (PV-1): > 30 µM
- EC50 (CV-A24): > 30 µM
- EC50 (EV-D68; [14]): 3.47 ± 0.08 µM
- EC50 (EV-D68; [15]): 3.39 µM
- EC50 (EV-D68; [16]): 3.54 µM
- EC50 (HRV-A2): > 30 µM
- EC50 (HRV-B14; [17]): > 30 µM
- EC50 (CV-B3 [2]; [18]): 2.52 µM
- EC50 (CV-B3 [2]; [19]): 2.05 µM
- EC50 (CV-B3 [2]; [20]): 2.99 µM
- EC50 (CV-B3 [3]; read-out: EC50 BGM Average): 4.18 µM
- EC50 (CV-B3 [3]; read-out: Exp 1 EC50 BGM): 3.86 µM
- EC50 (CV-B3 [3]; read-out: Exp 2 EC50 BGM): 4.5 µM
- cytotoxicity (in words) (HeLa R19 cells): no cytotoxicity
- CC50 (in vitro [4]; CC50 Average): > 30 µM
- CC50 (in vitro [4]; CC50 HelaR19 Average): > 100 µM
- CC50 (in vitro [4]; Exp 1 CC50): > 30 µM
- CC50 (in vitro [4]; Exp 1 CC50 HelaR19): > 100 µM
- CC50 (in vitro [4]; Exp2 CC50): > 30 µM
- CC50 (in vitro [4]; Exp 2 CC50 HelaR19): > 100 µM
- CC50 (in vitro [5]; CC50): > 100 µM
- CC50 (in vitro [5]; CC50 Hap1 Average): > 100 µM
- CC50 (in vitro [5]; Exp 1 CC50 Hap1): > 100 µM
- CC50 (in vitro [5]; Exp 2 CC50 Hap1): > 100 µM
- CC50 (in vitro [6]; CC50): > 100 µM
- CC50 (in vitro [6]; CC50 BGM Average): 56 µM
- CC50 (in vitro [6]; Exp 1 CC50 BGM): 58 µM
- CC50 (in vitro [6]; Exp 2 CC50 BGM): 54 µM

Compound: O=C(c1ccco1)N(Cc1ccc(S(F)(F)(F)(F)F)cc1)c1ccccc1 [Compound 19f, N-(4-(Pentafluorosulfaneyl)benzyl)-N-phenylfuran-2-carboxamide]
- EC50 (EV-A71; [7]): 4.37 ± 0.5 µM
- EC50 (EV-A71; EVA71, HeLa R19, read-out: EC50 Exp1): 3.87 µM
- EC50 (EV-A71; EVA71, HeLa R19, read-out: EC50 Exp2): 4.87 µM
- effect of the substitution on antiviral activity against CV-B3 (in words) (CV-B3 [1]): only marginally affected antiviral activity
- EC50 (CV-B3 [1]; [8]): 3.1 µM
- EC50 (CV-B3 [1]; [9]): 3.52 µM
- EC50 (CV-B3 [1]; [10]): 2.68 µM
- EC50 (CV-B3 [1]; [11]): 3.28 µM
- EC50 (CV-B3 [1]; [12]): 3.45 µM
- EC50 (CV-B3 [1]; [13]): 3.11 µM
- EC50 (PV-1): > 30 µM
- EC50 (CV-A24): > 30 µM
- EC50 (EV-D68; [15]): 13.6 µM
- EC50 (EV-D68; [16]): 15.3 µM
- EC50 (HRV-A2): > 30 µM
- EC50 (HRV-B14; [21]): 4.68 µM
- EC50 (HRV-B14; [22]): 5.76 µM
- EC50 (HRV-B14; [17]): 5.22 ± 0.54 µM
- EC50 (CV-B3 [2]; [18]): 2.1 µM
- EC50 (CV-B3 [2]; [19]): 2.3 µM
- EC50 (CV-B3 [2]; [20]): 1.9 µM
- EC50 (CV-B3 [3]; read-out: EC50 BGM Average): 2.6 µM
- EC50 (CV-B3 [3]; read-out: Exp 1 EC50 BGM): 2.22 µM
- EC50 (CV-B3 [3]; read-out: Exp 2 EC50 BGM): 2.98 µM
- CC50 (HeLa R19 cells; human): 32.9 ± 2 µM
- cytotoxicity (in words) (HeLa R19 cells; human, monkey): cytotoxicity in a similar range as the parental compound 1
- CC50 (in vitro [4]; CC50 Average): > 30 µM
- CC50 (in vitro [4]; CC50 HelaR19 Average): 32 µM
- CC50 (in vitro [4]; Exp 1 CC50): > 30 µM
- CC50 (in vitro [4]; Exp 1 CC50 HelaR19): 30 µM
- CC50 (in vitro [4]; Exp2 CC50): > 30 µM
- CC50 (in vitro [4]; Exp 2 CC50 HelaR19): 34 µM
- CC50 (in vitro [5]; CC50 Hap1 Average): 62.5 µM
- CC50 (in vitro [5]; Exp 1 CC50 Hap1): 61 µM
- CC50 (in vitro [5]; Exp 2 CC50 Hap1): 64.1 µM
- CC50 (in vitro [6]; CC50): 31.9 ± 1.41 µM
- CC50 (in vitro [6]; CC50 BGM Average): 31.9 µM
- CC50 (in vitro [6]; Exp 1 CC50 BGM): 30.5 µM
- CC50 (in vitro [6]; Exp 2 CC50 BGM): 33.3 µM

Compound: COc1ccc(N(Cc2ccc(F)cc2)C(=O)c2cccs2)cc1 [Compound 5d, N-(4-Fluorobenzyl)-N-(4-methoxyphenyl)thiophene-2-carboxamide]
- EC50 (EV-A71; [7]): > 30 µM
- increase of antiviral activity against CV-B3 (CV-B3 [1]): approximately 4 fold
- EC50 (CV-B3 [1]; CVB3, HeLa R19, read-out: 50% effective concentration [EC50]): 0.51 ± 0.05 µM
- EC50 (CV-B3 [1]; [9]): 0.47 µM
- EC50 (CV-B3 [1]; [10]): 0.55 µM
- EC50 (CV-B3 [1]; [12]): 0.52 µM
- EC50 (CV-B3 [1]; [13]): 0.31 µM
- EC50 (PV-1): > 30 µM
- EC50 (CV-A24): > 30 µM
- EC50 (EV-D68; [14]): 2.82 ± 0.4 µM
- EC50 (EV-D68; [15]): 2.42 µM
- EC50 (EV-D68; [16]): 3.21 µM
- EC50 (HRV-A2): > 30 µM
- EC50 (HRV-B14; [21]): 9.65 µM
- EC50 (HRV-B14; [22]): 8.93 µM
- EC50 (HRV-B14; [17]): 9.29 ± 0.36 µM
- EC50 (CV-B3 [2]; [18]): 0.25 µM
- EC50 (CV-B3 [2]; [19]): 0.17 µM
- EC50 (CV-B3 [3]; read-out: EC50 BGM Average): 0.63 µM
- EC50 (CV-B3 [3]; read-out: Exp 1 EC50 BGM): 0.49 µM
- EC50 (CV-B3 [3]; read-out: Exp 2 EC50 BGM): 0.77 µM
- cytotoxicity (in words) (HeLa R19 cells; human, monkey): cytotoxicity in a similar range as the parental compound 1
- CC50 (in vitro [4]; CC50 Average): > 30 µM
- CC50 (in vitro [4]; CC50 HelaR19 Average): 53 µM
- CC50 (in vitro [4]; Exp 1 CC50): > 30 µM
- CC50 (in vitro [4]; Exp 1 CC50 HelaR19): 52 µM
- CC50 (in vitro [4]; Exp2 CC50): > 30 µM
- CC50 (in vitro [4]; Exp 2 CC50 HelaR19): 54.1 µM
- CC50 (in vitro [5]; CC50 Hap1 Average): 53.9 µM
- CC50 (in vitro [5]; Exp 1 CC50 Hap1): 53.9 µM
- CC50 (in vitro [5]; Exp 2 CC50 Hap1): 54 µM
- CC50 (in vitro [6]; CC50): 66 ± 1.05 µM
- CC50 (in vitro [6]; CC50 BGM Average): 66 µM
- CC50 (in vitro [6]; Exp 1 CC50 BGM): 65 µM
- CC50 (in vitro [6]; Exp 2 CC50 BGM): 67.1 µM
